The target of assay [1] is Recombinant Human NF-Kappab-Inducing Kinase (NIK/MAP3K14) (Homo sapiens, UniProt Q99558). The assay is described as follows: Inhibition of auto-phosphorylation of recombinant human NIK/MAP3K14 (AlphaScreen). It counts as biochemical. The following applies: NIK/MAP3K14 auto-phosphorylation, 5 microM ATP, 1 nM enzyme, 2 h at 25° C.; average of values; read-out: Assay 1 IC50. The method, then: Biological Assay 1: Inhibition of Auto-Phosphorylation of Recombinant Human NF-Kappab-Inducing Kinase (NIK/MAP3K14) Activity (AlphaScreen®)
NIK/MAP3K14 auto-phosphorylation activity was measured using the AlphaScreen® ((αscreen) format (Perkin ElmeR). All compounds tested were dissolved in dimethyl sulfoxide (DMSO) and further dilutions were made in assay buffer. Final DMSO concentration was 0.7% (v/v) in assays. Assay buffer was 50 mM Tris pH 7.5 containing 1 mM EGTA (ethylene glycol tetraacetic acid), 1 mM DTT (dithiothreitol), 0.1 mM Na3VO4, 5 mM MgCl2, 0.01% Tween® 20. Assays were carried out in 384 well Proxiplates (Perkin ElmeR). Incubations consisted of compound, 5 microM Adenosine-5′-triphosphate (ATP), and 1 nM NIK/MAP3K14. Incubations were initiated by addition of GST-tagged NIK/MAP3K14 enzyme, carried out for 2 h at 25° C. and terminated by addition of stop buffer containing anti-phospho-IKK Ser176/180 antibody. Protein A Acceptor and Glutathione-donor beads were added before reading using an EnVision® Multilabel Plate Reader (Perkin ElmeR). Signal obtained in the wells was normalized using high (full enzyme activity, 0.7% DMSO) and low controls (no enzyme activity, 0.7% DMSO, no ATP). IC50's were determined by fitting a sigmoidal curve to % inhibition of control versus Log10 compound concentration.

The subject of assay [2] is p-IKKα levels in L363 (NIK translocated multiple myeloma) cells. The assay is described as follows: Effect of compounds on p-IKKα levels in L363 cells (AlphaLISA SureFire Ultra). The following applies: Homo sapiens, L-363; L363 cells, BAFF stimulated, MG132, 6 h; average of values; read-out: Assay 2 IC50. It counts as cell-based. Here is the method:
Biological Assay 2: Effect of Compounds on p-IKKα Levels in L363 (NIK Translocated Multiple Myeloma) Cells
All compounds tested were dissolved and serially diluted in DMSO, 1:3 dilution for 11 points in an Echo compatible plate. 100% DMSO is added to columns 12 and 24 of the plate to serve as high and low signal controls. This compound plate was used to spot 20 nl of compound or DMSO into a Greiner 384 well TC plate (781080). Final DMSO concentration was […] (v/v) in cell assays. Human L363 cells (ATCC) were cultured in RPMI 1640 medium supplemented with GlutaMax, non-essential amino acids, sodium pyruvate and 10% fetal bovine serum. Cells were routinely maintained at densities of 0.2×10^6 cells per ml −2×10^6 cells per ml at 37° C. in a humidified 5% CO2 atmosphere incubator. Cells were passaged twice a week splitting back to obtain the low density. The day before the assay, cells were washed twice in HBSS, resuspended in DMEM+0.5% IgG and protease free BSA (Jackson Immuno Research Laboratories), +/−250 ng/ml recombinant human B-cell activating factor (BAFF/BLyS/TNFSF13B) and incubated overnight at 37° C. in a humidified 5% CO2 atmosphere (bulk stimulation with or without BAFF). The next day, cell concentration was adjusted to 1×10^7 cells/ml in DMEM+/−250 ng/ml BAFF+/−10 uM MG132 and plated at 10 ul/well into compound or DMSO spotted 384 well TC plates. Seeded cells were incubated at 37° C. in a humidified 5% CO2 atmosphere for 6 h. After 6 h, plates were removed from the incubator and cell lysis was achieved by the addition of 2.5 μl 5× lysis buffer containing protease and phosphatase inhibitors, followed by shaking on a plate shaker at room temperature for 15 min. At the end of this incubation, lysed cells were sequentially treated and incubated with acceptor and donor bead mixes according to the manufacturer's protocol for a 1 plate/2-incubation suspension cell assay (AlphaLISA SureFire Ultra p-IKKα (Ser 176/180) Assay Kit (Perkin ElmeR). Plates were read using an EnVision® Multilabel Plate Reader (Perkin ElmeR). Within an experiment, a concentration response curve for each compound was run in duplicate. Signal obtained in the test wells was normalized using high signal (BAFF stimulated cells, DMSO, MG132) and low signal (unstimulated cells, DMSO) controls. To determine the IC50, a sigmoidal curve was fitted to the plot of % inhibition versus Log10 compound concentration.

Where only a bound is given, the exact number is not on record here.

Recombinant Human NF-Kappab-Inducing Kinase (NIK/MAP3K14), sequence (Q99558 whole entry): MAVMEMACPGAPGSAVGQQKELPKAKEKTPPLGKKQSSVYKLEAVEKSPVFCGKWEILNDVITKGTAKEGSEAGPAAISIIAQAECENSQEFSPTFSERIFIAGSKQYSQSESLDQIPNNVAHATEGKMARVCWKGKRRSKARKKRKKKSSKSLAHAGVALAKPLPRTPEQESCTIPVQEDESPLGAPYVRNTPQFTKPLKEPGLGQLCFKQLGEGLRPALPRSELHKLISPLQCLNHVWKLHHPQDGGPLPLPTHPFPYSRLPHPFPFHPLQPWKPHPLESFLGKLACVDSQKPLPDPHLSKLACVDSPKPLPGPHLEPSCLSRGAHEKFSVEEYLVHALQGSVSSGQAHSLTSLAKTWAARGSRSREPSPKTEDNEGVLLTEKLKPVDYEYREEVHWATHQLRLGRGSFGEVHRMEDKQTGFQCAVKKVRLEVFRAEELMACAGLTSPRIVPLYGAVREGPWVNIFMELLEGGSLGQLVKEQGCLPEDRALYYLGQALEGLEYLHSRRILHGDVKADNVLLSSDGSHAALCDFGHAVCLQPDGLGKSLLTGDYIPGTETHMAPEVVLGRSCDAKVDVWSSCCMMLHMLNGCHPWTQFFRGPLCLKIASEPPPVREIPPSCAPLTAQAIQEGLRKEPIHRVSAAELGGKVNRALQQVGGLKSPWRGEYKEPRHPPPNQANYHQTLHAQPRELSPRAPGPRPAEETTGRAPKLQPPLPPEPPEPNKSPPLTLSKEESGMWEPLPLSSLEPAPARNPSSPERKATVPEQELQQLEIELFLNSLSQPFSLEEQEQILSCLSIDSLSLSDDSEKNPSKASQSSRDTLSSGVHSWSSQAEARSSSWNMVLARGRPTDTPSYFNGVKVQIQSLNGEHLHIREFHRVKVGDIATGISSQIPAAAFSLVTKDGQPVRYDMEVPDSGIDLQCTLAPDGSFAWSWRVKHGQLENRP

On to `CN1CC[C@@](O)(c2cc(-c3cccc(-c4nc(C(N)=O)c(Nc5ccn(C)n5)s4)c3)no2)C1=O` [Example 236, (R)-2-(3-(5-(3-Hydroxy-1-methyl-2-oxopyrrolidin-3-yl)isoxazol-3-yl)phenyl)-5-((1-methyl-1H-pyrazol-3-yl)amino)thiazole-4-carboxamide], for which the IC50 in assay [1] and in assay [2] was under 0.1 µM throughout.

As for `CN1CC[C@@](O)(c2cc(-c3cccc(-c4nc(Nc5ccn(C)n5)c(C(F)(F)F)c(C(N)=O)n4)c3)no2)C1=O` [Example 133, (R)-2-(3-(5-(3-Hydroxy-1-methyl-2-oxopyrrolidin-3-yl)isoxazol-3-yl)phenyl)-6-((1-methyl-1H-pyrazol-3-yl)amino)-5-(trifluoromethyl)pyrimidine-4-carboxamide], the IC50 was under 0.1 µM in assay [1] and over 0.501 µM in assay [2].

Take `CN1CC[C@@](O)(c2cc(-c3cccc(-c4cc5cc[nH]c5c(C(N)=O)n4)c3)no2)C1=O` [Example 139, (R)-5-(3-(5-(3-Hydroxy-1-methyl-2-oxopyrrolidin-3-yl)isoxazol-3-yl)phenyl)-1H-pyrrolo[2,3-c]pyridine-7-carboxamide]: the IC50 in assay [1] and in assay [2] was under 0.1 µM each time.

For the compound `CN1CC[C@@](O)(c2cc(-c3cccc(-c4ncnc5sccc45)c3)no2)C1=O` [Example 72, (R)-3-Hydroxy-1-methyl-3-(3-(3-(thieno[2,3-d]pyrimidin-4-yl)phenyl)isoxazol-5-yl)pyrrolidin-2-one], the IC50 in assay [1] and in assay [2] was over 0.501 µM throughout.

As to `CN1CC[C@@](O)(c2cc(-c3cccc(-c4ncc5cn[nH]c5n4)c3)no2)C1=O` [Example 226, (R)-3-(3-(3-(1H-Pyrazolo[3,4-d]pyrimidin-6-yl)phenyl)isoxazol-5-yl)-3-hydroxy-1-methylpyrrolidin-2-one], the IC50 in assay [1] and in assay [2] was over 0.501 µM each time.

Regarding `CN1CC[C@@](O)(c2cc(C3CCCN(c4ccc5ncnc(N)c5n4)C3)no2)C1=O` (mixture of isomers) [Example 201, (3R)-3-(3-(1-(4-Aminopyrido[3,2-d]pyrimidin-6-yl)piperidin-3-yl)isoxazol-5-yl)-3-hydroxy-1-methylpyrrolidin-2-one], the IC50 in assay [1] was under 0.1 µM; in assay [2], over 0.501 µM.

Turning to `CN1CC[C@@](O)(c2cc(-c3cccc(-c4nc(C(N)=O)c(N)s4)c3)no2)C1=O` [Example 206, (R)-5-Amino-2-(3-(5-(3-hydroxy-1-methyl-2-oxopyrrolidin-3-yl)isoxazol-3-yl)phenyl)thiazole-4-carboxamide], the 50% inhibitory concentration (IC50) in assay [1] and in assay [2] was under 0.1 µM throughout.

Take `Cc1ccc(-c2cc([C@]3(O)CCN(C)C3=O)on2)cc1-c1nc2c(N)ncnc2s1` [Example 12, (R)-3-(3-(3-(7-Aminothiazolo[5,4-d]pyrimidin-2-yl)-4-methylphenyl)isoxazol-5-yl)-3-hydroxy-1-methylpyrrolidin-2-one]: the results for the IC50 in assay [1] and in assay [2] were under 0.1 µM and over 0.501 µM, respectively.

As for `Cc1ccc(-c2cccc(-c3cc([C@]4(O)CCN(C)C4=O)on3)c2)nc1C(N)=O` [Example 154, (R)-6-(3-(5-(3-Hydroxy-1-methyl-2-oxopyrrolidin-3-yl)isoxazol-3-yl)phenyl)-3-methylpicolinamide], the half-inhibitory concentration (IC50) in assay [1] was under 0.1 µM; in assay [2], over 0.501 µM.

Take `COc1cc(-c2cccc(-c3cc([C@]4(O)CCN(C)C4=O)on3)c2)nc2c1c(C)nn2C` [Example 230, (R)-3-Hydroxy-3-(3-(3-(4-methoxy-1,3-dimethyl-1H-pyrazolo[3,4-b]pyridin-6-yl)phenyl)isoxazol-5-yl)-1-methylpyrrolidin-2-one]: the IC50 in assay [1] was 0.1 to 0.5 µM; in assay [2] it was over 0.501 µM.

In the case of `COc1cc(-c2cc(-c3cc([C@@]4(O)C(=O)N(C)CC4(F)F)on3)ccc2F)nc2c(N)ncnc12` [Example 119, (R)-3-(3-(3-(4-Amino-8-methoxypyrido[3,2-d]pyrimidin-6-yl)-4-fluorophenyl)isoxazol-5-yl)-4,4-difluoro-3-hydroxy-1-methylpyrrolidin-2-one], the IC50 in assay [1] was under 0.1 µM; in assay [2], 0.1 to 0.5 µM.

Consider `CN1CC[C@@](O)(c2cc(-c3cccc(-c4cc(-c5c[nH]nc5C5CC5)cc(C(N)=O)n4)c3)no2)C1=O` [Example 190, (R)-4-(3-Cyclopropyl-1H-pyrazol-4-yl)-6-(3-(5-(3-hydroxy-1-methyl-2-oxopyrrolidin-3-yl)isoxazol-3-yl)phenyl)picolinamide], for which the results for the 50% inhibitory concentration (IC50) in assay [1] and in assay [2] were under 0.1 µM and over 0.501 µM, respectively.

Consider `CN1CCC(O)(c2cn(-c3cccc(-c4nc(C(N)=O)c5ccccc5n4)c3)cn2)C1=O` (racemic) [Example 19, (R,S)-2-(3-(4-(3-Hydroxy-1-methyl-2-oxopyrrolidin-3-yl)-1H-imidazol-1-yl)phenyl)quinazoline-4-carboxamide], for which the IC50 is under 0.1 µM in assay [1] and over 0.501 µM in assay [2].

`COc1nc(-c2cccc(-c3cc([C@]4(O)CCN(C)C4=O)on3)c2)nc(OC)c1N` [Example 136, (R)-3-(3-(3-(5-Amino-4,6-dimethoxypyrimidin-2-yl)phenyl)isoxazol-5-yl)-3-hydroxy-1-methylpyrrolidin-2-one]: the IC50 in assay [1] is 0.1 to 0.5 µM; in assay [2], over 0.501 µM.

Regarding `CN1CC[C@@](O)(c2cc(-c3cccc(-c4cc5[nH]ncc5cn4)c3)no2)C1=O` [Example 83, (R)-3-(3-(3-(1H-pyrazolo[4,3-c]pyridin-6-yl)phenyl)isoxazol-5-yl)-3-hydroxy-1-methylpyrrolidin-2-one], the IC50 in assay [1] and in assay [2] was over 0.501 µM each time.

Regarding `CN1CC[C@@](O)(c2cc(-c3cccc(-c4ncc(Nc5ccn(C)n5)c(C(N)=O)n4)c3)no2)C1=O` [Example 130, (R)-2-(3-(5-(3-Hydroxy-1-methyl-2-oxopyrrolidin-3-yl)isoxazol-3-yl)phenyl)-5-((1-methyl-1H-pyrazol-3-yl)amino)pyrimidine-4-carboxamide], the 50% inhibitory concentration (IC50) in assay [1] and in assay [2] was under 0.1 µM each time.

`Cc1ccc(-c2cccc(C(N)=O)n2)cc1-c1cc([C@]2(O)CCN(C)C2=O)on1` [Example 150, (R)-6-(3-(5-(3-Hydroxy-1-methyl-2-oxopyrrolidin-3-yl)isoxazol-3-yl)-4-methylphenyl)picolinamide]: the IC50 in assay [1] and in assay [2] was over 0.501 µM each time.

As to `COc1cc(-c2cccc(-c3cc([C@]4(O)CCN(C)C4=O)on3)c2)cc(C(N)=O)n1` [Example 47, (R)-4-(3-(5-(3-Hydroxy-1-methyl-2-oxopyrrolidin-3-yl)isoxazol-3-yl)phenyl)-6-methoxypicolinamide], the IC50 in assay [1] and in assay [2] was over 0.501 µM each time.

Consider `CN1CC[C@@](O)(c2cc(-c3cccc(-c4ccc5[nH]ncc5n4)c3)no2)C1=O` [Example 228, (R)-3-(3-(3-(1H-Pyrazolo[4,3-b]pyridin-5-yl)phenyl)isoxazol-5-yl)-3-hydroxy-1-methylpyrrolidin-2-one], for which the concentration for half-maximal inhibition (IC50) in assay [1] is 0.1 to 0.5 µM; in assay [2], over 0.501 µM.

As for `CN1CC[C@@](O)(c2cc(-c3cccc(-c4ccc5cnn(C)c5n4)c3)no2)C1=O` [Example 78, (R)-3-Hydroxy-1-methyl-3-(3-(3-(1-methyl-1H-pyrazolo[3,4-b]pyridin-6-yl)phenyl)isoxazol-5-yl)pyrrolidin-2-one], the IC50 is 0.1 to 0.5 µM in assay [1] and over 0.501 µM in assay [2].

These data come from patent US20250282785A1, “PYRROLIDINONE DERIVATIVES AS INHIBITORS OF NF KAPPA B INDUCING KINASE” (priority 2022, published 2025).
